How the values were obtained:
[1] = molecular target: T1, human Prostaglandin E2 (Subtype EP2) receptor (Homo sapiens, UniProt P43116); assay: cAMP antagonism assay (HTRF cAMP detection, in presence of PGE2); type: cell-based; settings: cAMP antagonism test
T1 construct: host or cells: cells in a cell culture plate
Description: 1. Detection of the Antagonism of the Human Prostaglandin E2 (Subtype EP2) Receptor Signal
1.1 Principle of Detection
(§1) The binding of PGE2 to the EP2 subtype of the human PGE2 receptor induces activation of membrane-associated adenylate cyclases and leads to the formation of cAMP. In the presence of the phosphodiesterase inhibitor IBMX, cAMP which has accumulated due to this stimulation and been released by cell lysis is employed in a competitive detection method. In this assay, the cAMP in the lysate competes with cAMP-XL665 for binding of an Eu cryptate-labelled anti-cAMP antibody.
(§2) The two lo signals are measured in a suitable measuring instrument with a time lag, i.e. after the background fluorescence has declined.
1.2.1 Antagonism assay (data for each well of a 384-well plate):
The substance solutions (0.75 μl) introduced into an assay plate and 30% DMSO were dissolved in 16 μl of a KRSB+IBMX stimulation solution (1×Krebs-Ringer Bicarbonate Buffer; Sigma-Aldrich # K-4002; including 750 μM 3-isobutyl-1-methylxanthine Sigma-Aldrich # I-7018), and then 15 μl thereof were transferred into a media-free cell culture plate which had been washed with KRSB shortly beforehand.
After preincubation at room temperature (RT) for 30 minutes, 5 μl of a 4×PGE2 solution (11 nM) were added, and incubation was carried out in the presence of the agonist at RT for a further 60 min (volume: ˜20 μl) before the reaction was then stopped by adding 5 μl of lysis buffer and incubated at RT for a further 20 min (volume: ˜25 μl). The cell lysate was then transferred into a measuring plate and measured in accordance with the manufacturer's information (cyclic AMP kit Cisbio International #62AMPPEC).

[2] = molecular target: T1, human Prostaglandin E2 (Subtype EP2) receptor; assay: cAMP agonism assay (cellular agonism test); type: cell-based
Description: as §1, §2
1.2.2 Agonism Assay (Data for each Well of a 384-Well Plate): […]
After incubation at room temperature (RT; volume: ˜15 μl) for 60 minutes, the reaction was then stopped by adding 5 μl of lysis buffer and incubated at RT for a further 20 min (volume: ˜20 μl). The cell lysate was then transferred into a measuring plate and measured in accordance with the manufacturer's instructions (cyclic AMP kit Cisbio International #62AMPPEC).

[3] = system: cumulus-oocyte complexes (cumulus expansion); assay: Cumulus expansion assay in vitro; type: cell-based, mice; settings: competing with PGE2
Protocol: 2.2 Cumulus Expansion Assay In Vitro
Folliculogenesis was induced in immature female mice (strain : CD1 (ICR) from Charles River) at an age of 14-18 days by a single dose (intraperitoneal) of 10 I.U. of PMSG (Pregnant Mare Serum Gonadotropin; Sigma G-4877, Lot 68H0909). 47-50 hours after the injection, the ovaries were removed and the cumulus-oocyte complexes were removed. The cumulus complex is not yet expanded at this stage.
The cumulus-oocyte complexes were then incubated with prostaglandin E2 (PGE2) (0.3 μM), vehicle control (ethanol) or test substances for 20-24 hours.
Medium: alpha-MEM medium with 0.1 mM IBMX, pyruvates (0.23 mM) glutamines (2 mM), pen/strep 100 IU/ml pen. and 100 μg/ml strep. and HSA (8 mg/ml). Cumulus expansion was then established through the division into four stages (according to Vanderhyden et al. Dev Biol. August 1990;140(2):307-317).

T1 sequence (P43116 whole entry): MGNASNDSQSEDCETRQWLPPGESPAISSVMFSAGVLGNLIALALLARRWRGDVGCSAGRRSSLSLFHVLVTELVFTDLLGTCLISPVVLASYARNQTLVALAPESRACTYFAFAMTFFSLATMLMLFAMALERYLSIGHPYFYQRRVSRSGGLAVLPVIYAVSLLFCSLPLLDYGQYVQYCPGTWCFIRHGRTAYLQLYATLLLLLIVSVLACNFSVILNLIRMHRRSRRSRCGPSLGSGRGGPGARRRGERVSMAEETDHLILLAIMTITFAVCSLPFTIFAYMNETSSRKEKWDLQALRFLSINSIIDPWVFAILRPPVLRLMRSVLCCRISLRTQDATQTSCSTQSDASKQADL

SMILES | IC50 [1] | also measured
COc1ccc(C(=O)NCCc2c(C)[nH]c3c(Cl)ccc(Cl)c23)cc1OC [Example 5, N-[2-(4,7-dichloro-2-methyl-1H-indol-3-yl)ethyl]-3,4-dimethoxybenzamide] | 1900 nM | –
O=C(NCCc1c(C(F)(F)F)[nH]c2c(Cl)cccc12)c1cc2cc(Cl)ccc2[nH]1 [Example 30, N-[2-(7-chloro-2-trifluoromethyl-1H-indol-3-yl)ethyl]-5-chloro-1H-indole-2-carboxamide] | 670 nM | –
COc1ccc(C(=O)NCCc2c(C)[nH]c3c(Cl)ccc(C)c23)cc1OC [Example 17, N-[2-(7-chloro-2,4-dimethyl-1H-indol-3-yl)ethyl]-3,4-di-methoxybenzamide] | 720 nM | –
CC(C)Oc1ccc2c(=O)c3cc(C(=O)O)ccc3oc2c1 [AH 6809, reference compound] | – | suppression of cumulus expansion ([3]; concentration of 100-200 μM): approx. 30%

The next lines start with results.

IC50 [1] | SMILES | also measured
47 nM | Cc1[nH]c2c(Cl)cccc2c1CCNC(=O)c1cc2cc(F)ccc2[nH]1 [Example 7, N-[2-(7-chloro-2-methyl-1H-indol-3-yl)ethyl]-5-fluoro-1H-indole-2-carboxamide] | effect in the cellular agonism test [2]: no inhibition
120 nM | Cc1[nH]c2c(Cl)ccc(F)c2c1CCNC(=O)c1cc2cc(F)ccc2[nH]1 [Example 8, N-[2-(7-chloro-4-fluoro-2-methyl-1H-indol-3-yl)ethyl]-5-fluoro-1H-indole-2-carboxamide] | suppression of cumulus expansion ([3]; concentration 5 μM): approx. 60%
320 nM | COc1ccc(C(=O)NCCc2c(C)[nH]c3c(Cl)cccc23)cc1OC [Example 1, N-[2-(7-chloro-2-methyl-1H-indol-3-yl)ethyl]-3,4-dimethoxy-benzamide] | –

— patent US20100029598A1, “Extended Benzamide Derivatives as Modulators of the EP2 Receptor” (Bayer Schering Pharma AG, priority 2008, published 2010)
